Assay results published in article PMC9814900 (Communications Chemistry, 2022).
Numbered stars: 1 amine (or outer) side, 2 acyl side, 3 side chain; on linkers, the order of the positions; unused ones are H or OH. Bridge positions count the residues as written; N and C are the ends. Peptide text beside a SMILES is read from it. * marks the point of attachment. Biotin = O=C1N[C@H]2[C@H](CS[C@H]2CCCCC(=O)*)N1; C6F4(1,4-diyl) = Fc1c(F)c([*:2])c(F)c(F)c1[*:1]; PEG4 = NCCOCCOCCOCCOCCC(=O)O

How the values were obtained:
SUMO-25-109MDM2 [1] = target: T1, SUMO-25-109MDM2 (Homo sapiens, UniProt Q00987); assay: Direct BLI binding assay of immobilised biotinylated peptides; conditions: biotin-PEG4-peptide on streptavidin sensor, SUMO-25-109MDM2 4-500 nM, global 1:1 fit
T1 construct: the ^25-109MDM2 gene was purchased from Addgene; made in house; host or cells: E. coli Rosetta (DE3) pLysS
Description: 6. Supplementary Methods 4: Binding validation by bio-layer interferometry 6.1 Methods for BLI assay
In vitro binding assay was performed using ForteBio Octet RED96 BLI system (Octet RED96). In a typical experiment, the streptavidin (SA) tips were dipped in 200 µL biotinylated- peptide solution (2.0 μM in PBS with 0.02% Tween 20 and 1 mg/mL BSA) for the loading step. The loaded tips were then dipped in the sample wells for association curves. Buffer-only condition were used as reference for background subtraction. After association, the tips were dipped in blocking buffer (1x PBS, 0.02% Tween 20, 1 mg/mL BSA) to obtain dissociation curve. The association and dissociation curves were fitted by the global fitting algorithm, under binding model 1:1 to obtain the binding response value (R) in nm.
Streptavidin sensors were soaked in blocking buffer for 5 min. After immobilizing the PEG4-biotinylated peptide (100 nM of Biotin-PEG4-peptide) onto streptavidin sensors, serial dilutions of SUMO-25-109MDM2 in blocking buffer were analyzed for binding (500 nM, 250 nM, 125 nM, 63nM, 32 nM, 16 nM, 8 nM and 4 nM. The response was recorded at equilibrium after 2 min.

Serum stability assay = format: in vitro ADME; conditions: 10 µM peptide, 25% human serum in 1x PBS (v/v); 0 min-24 h; TCA precipitation; LC-MS EIC peak area; first-order fit; three experiments; read-out: Half-life (t1/2) in serum
Description: To assess the stability of stapled peptides, we performed a serum stability assay (Supplementary Fig. 6)[31],[36],[37]. Three stapled peptides were selected for assessment. […]
10 µM peptide were incubated with 25% human serum in buffer 1x PBS (v/v). At each time point (0 min, 5 min, 10 min, 30 min, 1 h, 2 h, 4 h, 8 h, 12h and 24 h), the mixture was sampled, treated with 10% trichloroacetic acid, and centrifuged at 12,000 g to remove serum proteins. The supernatant was acidified with 0.2% formic acid in water (v/v) and subjected to LC-MS analysis. The percentage of peptides (Y-axis) was calculated as the ratio of peak area in extracted ion chromatogram (EIC). Three experiments were carried out. The serum digestion curve was plotted using Prism8 software. The half-life of each peptide was calculated by fitted the digestion curve with the first order kinetic equation: ሾXሿ௧ ൌ ሾXሿ଴ ൈeି௞௧ , ሾXሿ is the remaining peptide percentage, t is the time in min. Half-life was calculated as tଵ/ଶ ൌሺln 2ሻ/k .

SUMO-25-109MDM2 [2] = target: T1, SUMO-25-109MDM2; assay: In-solution competition assay by biolayer interferometry (BLI); format: binding; conditions: supplementary binding validation; averaged over three measurements; ~30-100 nM SUMO-25-109MDM2 as given per peptide; read-out: Averaged KD, competition BLI assay
antibody 12ca5 = conditions: stated for the epitope without method; ref not given; cited from earlier work
Excerpt: The epitope used for 12ca5 has the sequence […]; the previously characterized protein 14-3-3σ binder 14-3-3.6 was used for 14-3-3σ and its sequence can be found in Fig. 6b. A beta-alanine spacer was used between the library construct and the C-terminal lysine.

14-3-3σ = conditions: previously characterized binder; cited from earlier work
Excerpt: The epitope used for 12ca5 has the sequence […]; the previously characterized protein 14-3-3σ binder 14-3-3.6 was used for 14-3-3σ and its sequence can be found in Fig. 6b. A beta-alanine spacer was used between the library construct and the C-terminal lysine. […]

CC(C)C[C@H](NC(=O)[C@H](C)NC(=O)[C@H](C)NC(=O)[C@H](Cc1c[nH]c2ccccc12)NC(=O)[C@H](Cc1ccc(O)cc1)NC(=O)[C@H](C)NC(=O)[C@H](C)NC(=O)[C@H](Cc1ccccc1)NC(=O)[C@H](C)NC(=O)[C@H](C)NC(=O)CCOCCOCCOCCOCCNC(=O)CCCC[C@@H]1SC[C@@H]2NC(=O)N[C@@H]21)C(=O)N[C@@H](C)C(=O)N[C@@H](C)C(=O)N[C@@H](CCCCN)C(N)=O [Peptide 34-biotin] ({Biotin-PEG4}-AAFAAYWAALAAK-NH2)
koff (SUMO-25-109MDM2 [1]): 0.0102 s⁻¹ | kon (SUMO-25-109MDM2 [1]): 824000 M⁻¹ s⁻¹

CC(C)C[C@H](NC(=O)[C@H](CC(N)=O)NC(=O)[C@H](Cc1c[nH]c2ccccc12)NC(=O)[C@H](Cc1ccc(O)cc1)NC(=O)[C@H](CCC(=O)O)NC(=O)[C@H](C)NC(=O)[C@H](Cc1ccccc1)NC(=O)[C@H](CO)NC(=O)[C@@H](N)[C@@H](C)O)C(=O)N[C@@H](CC(C)C)C(=O)N[C@@H](CO)C(=O)N1CCC[C@H]1C(N)=O [PMI, reference compound] (H-TSFAEYWNLLSP-NH2)
half-life at 10 µM (Serum stability assay): 2.2 min

CC(C)C[C@H](NC(=O)[C@H](C)NC(=O)[C@H](C)NC(=O)[C@H](Cc1c[nH]c2ccccc12)NC(=O)[C@H](Cc1ccc(O)cc1)NC(=O)[C@H](C)NC(=O)[C@H](C)NC(=O)[C@H](Cc1ccccc1)NC(=O)[C@H](CO)NC(=O)[C@H](C)NC(=O)CCOCCOCCOCCOCCNC(=O)CCCC[C@@H]1SC[C@@H]2NC(=O)N[C@@H]21)C(=O)N[C@@H](C)C(=O)N[C@@H](C)C(=O)N[C@@H](CCCCN)C(N)=O [Peptide 33-biotin] ({Biotin-PEG4}-ASFAAYWAALAAK-NH2)
koff (SUMO-25-109MDM2 [1]): 0.0107 s⁻¹ | kon (SUMO-25-109MDM2 [1]): 170000 M⁻¹ s⁻¹

CC(C)C[C@@H]1NC(=O)[C@H](C)NC(=O)[C@@H](NC(=O)[C@H](Cc2c[nH]c3ccccc23)NC(=O)[C@H](Cc2ccc(O)cc2)NC(=O)[C@H](CCC(=O)O)NC(=O)[C@H](C)NC(=O)[C@H](Cc2ccccc2)NC(=O)[C@H](CO)NC(=O)[C@H](C)N)CSc2c(F)c(F)c(c(F)c2F)SC[C@@H](C(N)=O)NC(=O)[C@H](C)NC1=O [Peptide 39] (H-ASFAEYWCALAC-NH2; linker 8-12 via C6F4(1,4-diyl))
half-life at 10 µM (Serum stability assay): 25 min | Kd (SUMO-25-109MDM2 [2]): 3.3 ± 2.1 nM

CC(C)C[C@H](NC(=O)[C@H](C)NC(=O)[C@H](C)NC(=O)[C@H](Cc1c[nH]c2ccccc12)NC(=O)[C@H](Cc1ccc(O)cc1)NC(=O)[C@H](C)NC(=O)[C@H](C)NC(=O)[C@H](Cc1ccccc1)NC(=O)[C@H](C)NC(=O)[C@@H](NC(=O)CCOCCOCCOCCOCCNC(=O)CCCC[C@@H]1SC[C@@H]2NC(=O)N[C@@H]21)[C@@H](C)O)C(=O)N[C@@H](C)C(=O)N[C@@H](C)C(=O)N[C@@H](CCCCN)C(N)=O [Peptide 32-biotin] ({Biotin-PEG4}-TAFAAYWAALAAK-NH2)
koff (SUMO-25-109MDM2 [1]): 0.00981 s⁻¹ | kon (SUMO-25-109MDM2 [1]): 633000 M⁻¹ s⁻¹

CC(C)C[C@H](NC(=O)[C@H](C)NC(=O)[C@@H]1CSc2c(F)c(F)c(c(F)c2F)SC[C@H](NC(=O)[C@H](Cc2ccccc2)NC(=O)[C@H](CO)NC(=O)[C@H](C)N)C(=O)N[C@@H](CCC(=O)O)C(=O)N[C@@H](Cc2ccc(O)cc2)C(=O)N[C@@H](Cc2c[nH]c3ccccc23)C(=O)N1)C(=O)N[C@@H](C)C(=O)N[C@@H](C)C(N)=O [Peptide 36] (H-ASFCEYWCALAA-NH2; linker 4-8 via C6F4(1,4-diyl))
half-life at 10 µM (Serum stability assay): 26 min | Kd (SUMO-25-109MDM2 [2]): 4.4 ± 1.9 nM

CC(C)C[C@H](NC(=O)[C@H](C)NC(=O)[C@H](C)NC(=O)[C@H](Cc1c[nH]c2ccccc12)NC(=O)[C@H](Cc1ccc(O)cc1)NC(=O)[C@H](C)NC(=O)[C@H](C)NC(=O)[C@H](Cc1ccccc1)NC(=O)[C@H](C)NC(=O)[C@H](C)N)C(=O)N[C@@H](C)C(=O)N[C@@H](C)C(=O)N[C@@H](CCCCN)C(N)=O [Peptide 34] (H-AAFAAYWAALAAK-NH2)
half-life at 10 µM (Serum stability assay): 5.1 min

YPYDVPDYA
Kd (antibody 12ca5): 4 nM

CC(C)C[C@H](NC(=O)[C@H](C)NC(=O)[C@H](C)NC(=O)[C@H](Cc1c[nH]c2ccccc12)NC(=O)[C@H](Cc1ccc(O)cc1)NC(=O)[C@H](C)NC(=O)[C@H](C)NC(=O)[C@H](Cc1ccccc1)NC(=O)[C@H](C)NC(=O)[C@@H](N)[C@@H](C)O)C(=O)N[C@@H](C)C(=O)N[C@@H](C)C(=O)N[C@@H](CCCCN)C(N)=O [Peptide 32] (H-TAFAAYWAALAAK-NH2)
half-life at 10 µM (Serum stability assay): 3.9 min

Cha-Cha-β-Ser-Orn-pSer-Nph-β-Ser-β-Ser-Nph [Peptide 14-3-3.6]
Kd (14-3-3σ): 3 nM

CC(C)C[C@H](NC(=O)[C@@H]1CSc2c(F)c(F)c(c(F)c2F)SC[C@H](NC(=O)[C@H](C)NC(=O)[C@H](Cc2ccccc2)NC(=O)[C@H](CO)NC(=O)[C@H](C)N)C(=O)N[C@@H](Cc2ccc(O)cc2)C(=O)N[C@@H](Cc2c[nH]c3ccccc23)C(=O)N[C@@H](C)C(=O)N1)C(=O)N[C@@H](CO)C(=O)N[C@@H](C)C(N)=O [Peptide 38] (H-ASFACYWACLSA-NH2; linker 5-9 via C6F4(1,4-diyl))
half-life at 10 µM (Serum stability assay): 27 min | Kd (SUMO-25-109MDM2 [2]): 0.4 ± 0.3 nM
